Laboratory results from ChEMBL document CHEMBL3046495, “CoMFA, ADVANCE CoMFA AND CoMSIA STUDIES ON THE OXADIAZOLE SUBSTITUTED -ISOPROPOXY PHENYLPROPIONIC ACIDS FOR PPAR AGONISTIC ACTIVITY” (Med Chem Res, 2004).

Target: T1, Peroxisome proliferator-activated receptor alpha (Homo sapiens, UniProt Q07869)
T1 sequence (Q07869 whole entry): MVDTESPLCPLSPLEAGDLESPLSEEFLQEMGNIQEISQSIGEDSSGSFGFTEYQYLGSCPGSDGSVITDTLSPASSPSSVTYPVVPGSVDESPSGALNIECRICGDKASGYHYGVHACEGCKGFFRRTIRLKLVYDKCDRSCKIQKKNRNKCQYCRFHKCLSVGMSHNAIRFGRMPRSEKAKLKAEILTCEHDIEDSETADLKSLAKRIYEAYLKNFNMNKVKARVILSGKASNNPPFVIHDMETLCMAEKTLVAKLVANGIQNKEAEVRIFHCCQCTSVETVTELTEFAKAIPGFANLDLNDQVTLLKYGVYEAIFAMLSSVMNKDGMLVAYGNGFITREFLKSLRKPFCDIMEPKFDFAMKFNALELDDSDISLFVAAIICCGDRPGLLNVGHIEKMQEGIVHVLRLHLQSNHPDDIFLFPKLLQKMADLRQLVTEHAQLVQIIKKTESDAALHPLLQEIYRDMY
Test: Agonist activity at PPARalpha (unknown origin)

Row | EC50 [nM] | Compound
1 | 40 | CC(C)Cc1ccc(-c2nc(COc3ccc(CC(OC(C)C)C(=O)O)cc3)no2)cc1 (configuration not stated)
2 | 240 | CC(C)OC(Cc1ccc(OCCc2noc(C3CCCCC3)n2)cc1)C(=O)O (configuration not stated)
